ChEMBL document CHEMBL5465560, “Selectivity Literature for EUbOPEN Chemogenomic Library” (2024)
Values belong to the compound of their own block, whether it stands above or below them.

What was measured:
Aurora kinase B = Aurora kinase B (Homo sapiens, UniProt Q96GD4); assay: Selectivity interaction (KinomeScan (DiscoverX)) EUB0000666a AURKB; conditions: at 10 µM
[1] = molecular target: T1, Protein kinase C epsilon type (Homo sapiens) (UniProt Q02156); assay: Selectivity interaction (SelectScreen profiling (Invitrogen)) EUB0000607a PRKCE; conditions: at 2 µM
T1 sequence (whole entry): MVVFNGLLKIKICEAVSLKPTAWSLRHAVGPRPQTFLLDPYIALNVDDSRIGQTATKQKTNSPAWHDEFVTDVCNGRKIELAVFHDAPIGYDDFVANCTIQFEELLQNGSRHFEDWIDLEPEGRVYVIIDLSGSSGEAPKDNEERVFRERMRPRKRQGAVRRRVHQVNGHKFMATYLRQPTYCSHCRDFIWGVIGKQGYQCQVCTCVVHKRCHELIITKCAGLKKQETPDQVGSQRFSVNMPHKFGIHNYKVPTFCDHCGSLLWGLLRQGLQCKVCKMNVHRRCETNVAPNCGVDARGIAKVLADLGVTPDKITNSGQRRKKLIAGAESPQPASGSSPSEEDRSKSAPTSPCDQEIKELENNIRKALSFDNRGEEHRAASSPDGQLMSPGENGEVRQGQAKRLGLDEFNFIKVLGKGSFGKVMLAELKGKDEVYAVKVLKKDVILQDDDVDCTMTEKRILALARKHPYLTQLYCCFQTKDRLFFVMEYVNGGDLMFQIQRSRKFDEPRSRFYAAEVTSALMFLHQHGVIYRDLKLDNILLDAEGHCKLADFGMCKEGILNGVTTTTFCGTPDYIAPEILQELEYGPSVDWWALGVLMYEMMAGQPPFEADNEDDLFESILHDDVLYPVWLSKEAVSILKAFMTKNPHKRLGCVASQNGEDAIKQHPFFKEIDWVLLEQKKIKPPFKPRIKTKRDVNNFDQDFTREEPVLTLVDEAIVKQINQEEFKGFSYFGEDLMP

SRSF protein kinase 1 = SRSF protein kinase 1 (Homo sapiens, UniProt Q96SB4); conditions: at 10 µM
[2] = molecular target: MAP/microtubule affinity-regulating kinase 3 (Homo sapiens) (UniProt P27448); assay: Selectivity interaction (ActivX KiNativ screen (kinase selectivity in THP-1 cell lysates)) EUB0000639a MARK3; format: subcellular; conditions: lysate
Sequence of MAP/microtubule affinity-regulating kinase 3 (Homo sapiens) (P27448 whole entry, looked up): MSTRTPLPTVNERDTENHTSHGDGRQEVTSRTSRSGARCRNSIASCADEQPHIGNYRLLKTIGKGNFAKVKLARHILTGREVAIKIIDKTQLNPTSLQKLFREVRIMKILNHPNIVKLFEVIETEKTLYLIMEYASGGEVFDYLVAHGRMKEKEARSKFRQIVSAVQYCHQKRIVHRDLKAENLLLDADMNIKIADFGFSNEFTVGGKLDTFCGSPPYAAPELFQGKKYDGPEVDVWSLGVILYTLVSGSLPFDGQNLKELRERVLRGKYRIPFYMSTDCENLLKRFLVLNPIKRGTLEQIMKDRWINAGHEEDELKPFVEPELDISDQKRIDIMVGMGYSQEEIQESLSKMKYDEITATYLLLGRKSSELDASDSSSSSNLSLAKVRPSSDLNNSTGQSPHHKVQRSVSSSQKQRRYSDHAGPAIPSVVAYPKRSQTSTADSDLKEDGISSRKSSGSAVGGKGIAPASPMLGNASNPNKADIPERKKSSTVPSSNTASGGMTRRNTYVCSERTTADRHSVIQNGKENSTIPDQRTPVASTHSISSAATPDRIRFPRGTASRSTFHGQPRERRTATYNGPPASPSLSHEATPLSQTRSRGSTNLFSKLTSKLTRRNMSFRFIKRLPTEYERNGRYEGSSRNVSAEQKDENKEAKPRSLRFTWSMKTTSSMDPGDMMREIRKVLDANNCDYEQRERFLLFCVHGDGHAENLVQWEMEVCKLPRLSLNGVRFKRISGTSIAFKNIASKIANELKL

[3] = molecular target: Serine/threonine-protein kinase pim-1 (Homo sapiens, UniProt P11309); conditions: at 10 µM
[4] = molecular target: T2, Cyclin-dependent kinase 11A (Homo sapiens) (UniProt Q9UQ88); assay: Selectivity interaction (Ambit KINOMEscan and KiNATiv profiling in Jurkat cells) EUB0000090b CDK11A; format: cell-based; conditions: at 1 µM
T2 sequence (whole entry): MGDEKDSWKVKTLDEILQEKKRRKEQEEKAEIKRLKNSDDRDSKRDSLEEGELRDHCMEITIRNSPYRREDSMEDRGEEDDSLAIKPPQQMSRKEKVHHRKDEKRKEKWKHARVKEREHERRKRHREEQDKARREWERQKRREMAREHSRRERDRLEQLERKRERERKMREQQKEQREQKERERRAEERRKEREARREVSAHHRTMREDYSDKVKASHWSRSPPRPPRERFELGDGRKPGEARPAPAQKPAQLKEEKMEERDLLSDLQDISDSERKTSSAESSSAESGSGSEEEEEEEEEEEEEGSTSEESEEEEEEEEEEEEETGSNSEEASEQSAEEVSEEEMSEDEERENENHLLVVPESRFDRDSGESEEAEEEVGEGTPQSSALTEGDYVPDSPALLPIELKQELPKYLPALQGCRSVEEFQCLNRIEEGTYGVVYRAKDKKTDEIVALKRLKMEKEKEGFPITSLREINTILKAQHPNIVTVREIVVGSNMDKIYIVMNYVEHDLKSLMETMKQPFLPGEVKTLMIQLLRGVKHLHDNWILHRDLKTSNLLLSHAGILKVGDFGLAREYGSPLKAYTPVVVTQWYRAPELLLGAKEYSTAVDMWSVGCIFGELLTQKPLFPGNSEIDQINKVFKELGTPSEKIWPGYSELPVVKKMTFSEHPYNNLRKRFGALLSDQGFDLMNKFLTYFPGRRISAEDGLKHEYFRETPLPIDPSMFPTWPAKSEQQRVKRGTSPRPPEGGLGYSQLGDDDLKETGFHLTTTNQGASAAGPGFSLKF

[5] = molecular target: Protein polybromo-1 (Homo sapiens) (UniProt Q86U86); assay: Selectivity interaction (Bromodomain panel (DSF asssay)) EUB0000270b PBRM1
Sequence of Protein polybromo-1 (Homo sapiens) (Q86U86 whole entry): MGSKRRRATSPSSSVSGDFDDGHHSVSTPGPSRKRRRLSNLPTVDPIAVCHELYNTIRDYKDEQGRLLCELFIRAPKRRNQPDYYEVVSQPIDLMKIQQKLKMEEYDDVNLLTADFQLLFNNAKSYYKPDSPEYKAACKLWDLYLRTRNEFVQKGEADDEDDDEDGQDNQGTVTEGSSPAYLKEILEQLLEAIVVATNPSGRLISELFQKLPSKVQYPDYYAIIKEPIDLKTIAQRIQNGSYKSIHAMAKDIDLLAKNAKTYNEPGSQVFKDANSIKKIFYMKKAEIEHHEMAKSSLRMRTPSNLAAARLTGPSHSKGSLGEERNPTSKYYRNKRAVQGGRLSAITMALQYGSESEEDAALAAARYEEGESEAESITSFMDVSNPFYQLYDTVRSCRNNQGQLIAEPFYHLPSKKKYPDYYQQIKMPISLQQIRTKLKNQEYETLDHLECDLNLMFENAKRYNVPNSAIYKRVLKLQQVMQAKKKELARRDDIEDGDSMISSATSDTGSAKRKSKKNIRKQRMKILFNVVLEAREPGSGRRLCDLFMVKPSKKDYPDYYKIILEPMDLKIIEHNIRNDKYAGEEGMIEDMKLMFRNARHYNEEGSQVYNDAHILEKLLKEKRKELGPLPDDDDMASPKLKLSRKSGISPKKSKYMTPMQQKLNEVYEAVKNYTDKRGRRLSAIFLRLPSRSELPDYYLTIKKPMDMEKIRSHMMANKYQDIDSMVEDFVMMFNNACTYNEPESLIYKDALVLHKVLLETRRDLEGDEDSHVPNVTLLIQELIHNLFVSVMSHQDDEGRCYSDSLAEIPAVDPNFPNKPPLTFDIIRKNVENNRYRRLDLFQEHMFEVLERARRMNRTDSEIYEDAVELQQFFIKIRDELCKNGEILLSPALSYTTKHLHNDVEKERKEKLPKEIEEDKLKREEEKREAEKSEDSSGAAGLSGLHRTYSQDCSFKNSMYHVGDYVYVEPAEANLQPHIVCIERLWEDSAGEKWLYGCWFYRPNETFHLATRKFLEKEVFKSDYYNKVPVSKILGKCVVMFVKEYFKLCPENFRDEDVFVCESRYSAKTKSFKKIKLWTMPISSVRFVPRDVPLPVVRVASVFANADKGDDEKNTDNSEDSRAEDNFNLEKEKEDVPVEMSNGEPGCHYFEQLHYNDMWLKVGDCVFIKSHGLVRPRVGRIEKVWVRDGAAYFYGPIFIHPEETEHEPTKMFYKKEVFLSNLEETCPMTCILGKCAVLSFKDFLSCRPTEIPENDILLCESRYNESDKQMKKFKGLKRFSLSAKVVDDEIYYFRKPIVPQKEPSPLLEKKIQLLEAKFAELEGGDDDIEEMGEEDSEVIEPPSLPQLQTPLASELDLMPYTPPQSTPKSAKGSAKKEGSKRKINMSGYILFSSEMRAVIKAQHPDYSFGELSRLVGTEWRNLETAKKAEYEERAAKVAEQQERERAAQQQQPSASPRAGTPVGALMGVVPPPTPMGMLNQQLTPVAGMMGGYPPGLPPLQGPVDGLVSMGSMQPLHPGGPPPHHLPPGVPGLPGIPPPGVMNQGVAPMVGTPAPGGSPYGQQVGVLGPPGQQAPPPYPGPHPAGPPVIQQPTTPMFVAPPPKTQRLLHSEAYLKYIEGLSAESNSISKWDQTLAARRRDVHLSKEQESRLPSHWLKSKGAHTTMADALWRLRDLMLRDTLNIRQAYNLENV

[6] = molecular target: Serine/threonine-protein kinase SBK1 (Homo sapiens) (UniProt Q52WX2); assay: Selectivity interaction (KinomeScan (DiscoverX)) EUB0000229b SBK1; conditions: at 10 µM
Sequence of Serine/threonine-protein kinase SBK1 (Homo sapiens) (Q52WX2 whole entry): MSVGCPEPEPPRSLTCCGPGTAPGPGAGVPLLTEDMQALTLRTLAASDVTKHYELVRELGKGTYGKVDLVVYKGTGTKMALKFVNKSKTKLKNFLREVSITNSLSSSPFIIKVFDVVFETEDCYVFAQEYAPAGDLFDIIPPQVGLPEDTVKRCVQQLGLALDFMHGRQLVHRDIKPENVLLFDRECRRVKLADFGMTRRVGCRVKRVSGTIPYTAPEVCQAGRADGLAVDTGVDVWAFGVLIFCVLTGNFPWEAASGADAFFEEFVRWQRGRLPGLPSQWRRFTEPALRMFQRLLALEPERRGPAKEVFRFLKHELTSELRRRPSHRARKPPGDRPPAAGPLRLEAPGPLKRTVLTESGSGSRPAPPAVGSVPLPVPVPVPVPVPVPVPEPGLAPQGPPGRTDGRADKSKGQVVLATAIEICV

[7] = molecular target: MAP kinase-activated protein kinase 2 (Homo sapiens, UniProt P49137); assay: Selectivity interaction (KinomeScan (DiscoverX)) EUB0000229b MAPKAPK2; conditions: at 10 µM
Sequence of MAP kinase-activated protein kinase 2 (P49137 whole entry, looked up): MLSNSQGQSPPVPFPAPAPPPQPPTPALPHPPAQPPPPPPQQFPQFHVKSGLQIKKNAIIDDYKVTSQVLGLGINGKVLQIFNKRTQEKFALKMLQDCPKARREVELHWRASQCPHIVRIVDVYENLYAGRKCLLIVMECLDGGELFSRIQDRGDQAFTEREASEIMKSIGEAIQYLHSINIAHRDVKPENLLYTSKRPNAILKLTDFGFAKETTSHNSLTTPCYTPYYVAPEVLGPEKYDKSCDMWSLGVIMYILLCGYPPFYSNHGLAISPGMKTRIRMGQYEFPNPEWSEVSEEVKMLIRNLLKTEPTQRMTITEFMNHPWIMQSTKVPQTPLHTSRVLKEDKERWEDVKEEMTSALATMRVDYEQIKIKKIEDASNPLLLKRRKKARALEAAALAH

[8] = molecular target: STE20-like serine/threonine-protein kinase (Homo sapiens, UniProt Q9H2G2); conditions: at 10 µM
Sequence of STE20-like serine/threonine-protein kinase (Q9H2G2 whole entry, looked up): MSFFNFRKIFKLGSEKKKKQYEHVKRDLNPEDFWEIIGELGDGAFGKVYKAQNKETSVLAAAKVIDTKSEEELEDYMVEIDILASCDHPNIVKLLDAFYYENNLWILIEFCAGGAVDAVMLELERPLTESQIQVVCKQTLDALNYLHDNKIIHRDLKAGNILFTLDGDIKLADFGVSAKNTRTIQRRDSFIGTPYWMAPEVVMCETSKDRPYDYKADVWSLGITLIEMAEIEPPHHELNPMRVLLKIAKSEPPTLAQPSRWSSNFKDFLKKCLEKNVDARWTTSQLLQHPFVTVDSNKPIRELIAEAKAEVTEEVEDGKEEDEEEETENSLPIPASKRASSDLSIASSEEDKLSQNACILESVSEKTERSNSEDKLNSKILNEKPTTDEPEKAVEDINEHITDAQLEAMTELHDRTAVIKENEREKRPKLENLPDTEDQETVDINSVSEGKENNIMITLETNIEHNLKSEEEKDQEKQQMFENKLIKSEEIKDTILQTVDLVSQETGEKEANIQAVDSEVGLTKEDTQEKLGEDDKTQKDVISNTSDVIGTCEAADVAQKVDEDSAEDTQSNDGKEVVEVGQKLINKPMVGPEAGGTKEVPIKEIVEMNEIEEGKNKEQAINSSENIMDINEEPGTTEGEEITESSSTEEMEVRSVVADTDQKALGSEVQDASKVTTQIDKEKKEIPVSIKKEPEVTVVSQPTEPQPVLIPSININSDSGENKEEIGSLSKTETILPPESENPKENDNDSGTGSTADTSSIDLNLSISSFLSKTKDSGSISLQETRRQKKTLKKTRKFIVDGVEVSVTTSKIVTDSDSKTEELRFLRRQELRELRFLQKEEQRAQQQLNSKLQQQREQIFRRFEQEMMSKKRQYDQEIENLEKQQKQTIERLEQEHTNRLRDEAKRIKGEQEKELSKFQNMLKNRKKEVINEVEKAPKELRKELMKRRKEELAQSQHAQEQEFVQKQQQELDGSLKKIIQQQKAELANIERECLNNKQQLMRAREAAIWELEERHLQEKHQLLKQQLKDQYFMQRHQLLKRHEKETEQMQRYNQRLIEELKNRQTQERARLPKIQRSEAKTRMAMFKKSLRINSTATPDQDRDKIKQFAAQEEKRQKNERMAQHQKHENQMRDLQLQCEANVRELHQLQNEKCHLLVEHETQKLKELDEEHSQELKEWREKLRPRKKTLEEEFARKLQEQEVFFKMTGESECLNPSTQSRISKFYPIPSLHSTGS

[9] = molecular target: T3, Serine/threonine-protein kinase Chk1 (Homo sapiens) (UniProt O14757); assay: Selectivity interaction (KinomeScan (DiscoverX)) EUB0000618a CHEK1; conditions: at 10 µM
T3 sequence (whole entry): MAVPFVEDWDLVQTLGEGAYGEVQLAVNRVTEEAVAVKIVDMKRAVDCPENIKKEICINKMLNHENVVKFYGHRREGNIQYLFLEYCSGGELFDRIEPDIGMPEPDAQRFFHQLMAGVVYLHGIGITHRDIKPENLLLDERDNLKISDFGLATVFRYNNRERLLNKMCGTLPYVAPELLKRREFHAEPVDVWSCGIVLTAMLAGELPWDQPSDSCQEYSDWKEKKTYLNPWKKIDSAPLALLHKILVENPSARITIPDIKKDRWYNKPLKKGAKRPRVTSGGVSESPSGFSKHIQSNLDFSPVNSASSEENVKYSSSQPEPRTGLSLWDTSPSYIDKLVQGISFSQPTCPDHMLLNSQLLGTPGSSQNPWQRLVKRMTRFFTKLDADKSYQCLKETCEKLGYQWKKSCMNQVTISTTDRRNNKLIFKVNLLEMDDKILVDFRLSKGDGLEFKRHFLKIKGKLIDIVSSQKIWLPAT

[10] = molecular target: Serine/threonine-protein kinase MARK2 (Homo sapiens) (UniProt Q7KZI7); assay: Selectivity interaction (ActivX KiNativ screen (ex vivo kinase selectivity in human PBMCs)) EUB0001619a MARK2; format: cell-based; conditions: PBMC, at 1 µM

Sequence of Aurora kinase B (Q96GD4 whole entry): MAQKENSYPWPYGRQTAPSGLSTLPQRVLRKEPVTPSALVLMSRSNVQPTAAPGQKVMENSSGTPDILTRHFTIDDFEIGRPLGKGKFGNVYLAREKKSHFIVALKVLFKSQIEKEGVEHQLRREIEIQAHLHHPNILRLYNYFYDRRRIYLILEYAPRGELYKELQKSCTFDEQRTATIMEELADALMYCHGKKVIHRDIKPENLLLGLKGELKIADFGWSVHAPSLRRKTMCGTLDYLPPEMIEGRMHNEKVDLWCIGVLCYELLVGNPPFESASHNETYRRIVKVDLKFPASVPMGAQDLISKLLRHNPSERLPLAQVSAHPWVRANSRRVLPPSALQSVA

SMILES: O=C(NOC[C@H](O)CO)c1ccc(F)c(F)c1Nc1ccc(I)cc1F
% of control (Aurora kinase B): 99%

SMILES: CNC(=O)Nc1ccc(-c2nc(N3CC4CCC(C3)O4)c3cnn(C4CCC5(CC4)OCCO5)c3n2)cc1
% of inhibition [1]: 15%

% of control (SRSF protein kinase 1): 100%
SMILES: CCN(CC)CCCCNc1ncc2cc(-c3cc(OC)cc(OC)c3)c(NC(=O)NC(C)(C)C)nc2n1

% of inhibition ([2]; at 0.01 µM): 10% | % of inhibition ([2]; at 0.04 µM): 17.3% | % of inhibition ([2]; at 0.2 µM): 11.9% | % of inhibition ([2]; at 1 µM): 26.3% | % of inhibition ([2]; at 5 µM): 51.4%
SMILES: CC[C@@H]1[C@H](F)C(=O)N[C@@H]1COc1nccc2cc(C(N)=O)c(OC)cc12 [ZIMLOVISERTIB]

SMILES: COCC(=O)NC/C=C/c1ccc2ncnc(Nc3ccc(Oc4ccc(C)nc4)c(C)c3)c2c1 [CP-724714]
% of control [3]: 100%

SMILES: CN(C)C/C=C/C(=O)Nc1ccc(C(=O)N2CCCC(Nc3ncc(Cl)c(-c4c[nH]c5ccccc45)n3)C2)cc1 (stereo unspecified)
% of control [4]: 95%

dTM [5]: -1.91 K
SMILES: Cc1cc(CN)cc(C)c1-c1ncn(C)c1-c1cncn1C

SMILES: COc1cc(N(C)c2ccnc3ccc(C(F)(F)F)cc23)cc(OC)c1OC
% binding [6]: 92% | % binding [7]: 93%

SMILES: Cc1cc([C@@H](C)Nc2ccccc2C(=O)O)c2nc(N3CCOCC3)cc(=O)n2c1 [AZD-6482]
% of control [8]: 100%

SMILES: O[C@H]1CC[C@H](Nc2ncc3nc(Nc4c(F)cc(F)cc4F)n([C@H]4CCOC4)c3n2)CC1
% of control [9]: 97%

SMILES: N#Cc1cccc(-c2c[nH]c3ncnc(N4CCOCC4)c23)c1
% of inhibition [10]: 41%
